# Read-outs that look alike come from different tables or passages of the source.
# How the values were obtained:
# [1] = test system: iPSC lines used in this study; experiment: CHIR99021 optimisation for differentiation of iPSCs into myogenic progenitor cells; type: cell-based, human
# Method: (§1) A confluent iPSC culture in a 35 mm dish was incubated for 5 minutes at 37° C. with 2 mg/ml collagenase IV in DMEM/F12, cut into pieces with a 23 gauge needle, detached with a cell scraper and split into a 10 cm dish with a confluency of 40%. After 5 days, differentiation into myogenic progenitor cells (MPCs) was started with myogenic differentiation medium (DMEM/F12, 1% Insulin-Transferrin-Selenium-Ethanolamine, 1% penicillin/streptomycin/L-glutamine) supplemented with 3.5 μM CHIR99021 for 5 days and changed to myogenic differentiation medium supplemented with 20 ng/ml FGF2 (Peprotech. London. UK) for 14 days. The last 16 days, cells were cultured in myogenic differentiation medium only. For FACS purification cells were detached with TrypLE and stained on ice with anti-C-MET-APC (1:50, R&D systems, Minneapolis Minn.) and anti-HNK-1-FITC (1:100, Aviv Systems Biology, San Diego. Calif.) antibodies. Prior to FACS, Hoechst (33258, Life Technologies, Carlsbad, Calif.) was added to stain live cells. The c-MET^+/Hoechst^+/Hnk-1^− fraction was sorted in MPC proliferation medium (DMEM high glucose supplemented with 10% fetal bovine serum, 1% penicillin/streptomycin/L-glutamine and 100 ng/ml FGF2) supplemented with 1× Revitacell supplement (Gibco, Waltham. Mass.). For slightly positive cultures, MPCs were sorted with a maximum sorting time of 20 minutes and pooled into a single well until amount of 20.000 for 96 well, 40.000 for 48 well or 80.000 for 24 well was reached. After 24 hours. MPCs were expanded in MPC proliferation medium or cryopreserved. Further details are described previously (van der Wal et al., 2017).
# The first step of the differentiation procedure from iPSCs into MPCs is the stimulation of the Wnt pathway with CHIR99021. In a previous study on which the current protocol was based. […] In order to define the optimal concentration of CHIR99021 we generated single cells from iPSCs, and incubated these with 10 μM CHIR99021 for 2 days, followed by the differentiation procedure highlighted in FIG. 5. […]
# Control 2 iPSCs = experiment: Optimization of CHIR99021 concentration, Control 2 iPSC colonies (confluency, Pax7 staining); type: cell-based, human
# Method: as §1
# (§2) Differentiated cells were fixed by adding 1 volume of 4% paraformaldehyde (PFA) (Merck, Kenilworth, N.J.) in PBS to the medium. PFA was incubated for 10 minutes at room temperature and afterwards replaced by PBS. Fixed cells were either stored at 4° C. or directly stained. For staining, cells were permeabilized for 5 minutes with 0.1% Triton X-100 (AppliChem, Darmstadt, Germany) in PBS and blocked for 30 minutes at room temperature in blocking solution (PBS-T (0.1% Tween. Sigma Aldrich, Irvine. UK) with 3% BSA (Sigma Aldrich. Irvine, UK)). Primary antibodies (Table 5) were incubated 1 hour at room temperature and diluted into 0.1% BSA in PBS-T. The unbound first antibody was removed by washing three times for 5 minutes with PBS-T. Secondary antibodies (1:500, Alexa-Fluor-594-α-goat, Alexa-Fluor-488-α-mouse, Alexa-Fluor-594-α-rabbit, Alexa-Fluor-488-α-rabbit, Invitrogen, Carlsbad, Calif. or horse anti-mouse biotin, Vector Laboratories, Burlingame, Calif.) were incubated for 30 minutes at room temperature in PBS-T. When a secondary biotinylated antibody was used cells were washed three times for 5 minutes with PBS-T and incubated with Streptavidine 594 (1:500. Invitrogen, Carlsbad. Calif.,). The cells were subsequently washed two times for 5 minutes with PBS and incubated for 15 minutes with Hoechst (1:15000. Thermo Scientific, Waltham, Mass.). Cells were imaged in PBS.
# (§3) The first step of the differentiation procedure from iPSCs into MPCs is the stimulation of the Wnt pathway with CHIR99021. In a previous study on which the current protocol was based. […] In order to define the optimal concentration of CHIR99021 we generated single cells from iPSCs, and incubated these with 10 μM CHIR99021 for 2 days, followed by the differentiation procedure highlighted in FIG. 5. […] Generating single iPSCs in feeder-based culture systems causes massive apoptosis and addition of Rock inhibitor is required (Watanabe et al., 2007). To keep the differentiation protocol applicable for feeder-dependent and feeder-free cultures we decided to further optimize the concentration of CHIR99021 on plated iPSC colonies with a range from 3 to 5 μM CHIR99021, with incubation for 4, 5, 8 or 10 days. […] To avoid toxicity, we used a concentration of 3.5 μM CHIR99021 in our final differentiation protocol.
# pluripotent stem cells = settings: cited from earlier work
# Control 1 iPSCs = experiment: Optimization of CHIR99021 concentration, Control 1 iPSC colonies (confluency, Pax7 staining); type: cell-based, human
# Method: as §1, §2, §3
# [2] = cited from earlier work
compound,measurement,setting,value
"Cc1cnc(-c2cnc(NCCNc3ccc(C#N)cn3)nc2-c2ccc(Cl)cc2Cl)[nH]1 [CHIR99021, 6-[2-[[4-(2,4-dichlorophenyl)-5-(5-methyl-1H-imidazol-2-yl)pyrimidin-2-yl]amino]ethylamino]pyridine-3-carbonitrile]","Pax7 staining, amount of Pax7-positive areas in the culture","[1]; control 1 and control 2 iPSCs, 4 μM CHIR99021 for 5 days, range tested 3 to 5 μM for 4, 5, 8 or 10 days",highest amount of Pax7-positive areas
same,concentration resulting in higher toxicity levels and more variable response among iPSC lines,[1]; plated iPSC colonies,> 4 µM
same,Pax7 positive cells after 40 days of differentiation,"[1]; single cells from iPSCs, 10 μM CHIR99021 for 2 days",Pax7 positive cells were observed
same,Confluency,"Control 2 iPSCs; 3 μM CHIR99021, 4 days",95%
same,Confluency,"Control 2 iPSCs; 3 μM CHIR99021, 5 days",100%
same,Confluency,"Control 2 iPSCs; 3 μM CHIR99021, 8 days",90%
same,Confluency,"Control 2 iPSCs; 3 μM CHIR99021, 10 days",95%
same,Confluency,"Control 2 iPSCs; 4 μM CHIR99021, 4 days",95%
same,Pax7+,"Control 2 iPSCs; 4 μM CHIR99021, 4 days",+ +
same,Confluency,"Control 2 iPSCs; 4 μM CHIR99021, 5 days",95%
same,Pax7+,"Control 2 iPSCs; 4 μM CHIR99021, 5 days",+ +
same,Confluency,"Control 2 iPSCs; 4 μM CHIR99021, 8 days",95%
same,Pax7+,"Control 2 iPSCs; 4 μM CHIR99021, 8 days",+ +
same,Confluency,"Control 2 iPSCs; 4 μM CHIR99021, 10 days",85%
same,Confluency,"Control 2 iPSCs; 5 μM CHIR99021, 4 days",95%
same,Confluency,"Control 2 iPSCs; 5 μM CHIR99021, 5 days",95%
same,Pax7+,"Control 2 iPSCs; 5 μM CHIR99021, 5 days",+ +
same,Confluency,"Control 2 iPSCs; 5 μM CHIR99021, 8 days",50%
same,Confluency,"Control 2 iPSCs; 5 μM CHIR99021, 10 days",30%
same,induction of paraxial mesoderm,"pluripotent stem cells; 10 μM CHIR99021 incubated for 2 days, Shelton et al., 2014",better induction of paraxial mesoderm
same,concentration at which toxicity was described,"pluripotent stem cells; Borchin et al., 2013",higher than 3 μM
same,Confluency,"Control 1 iPSCs; 3 μM CHIR99021, 4 days",65%
same,Pax7+,"Control 1 iPSCs; 3 μM CHIR99021, 4 days",+ +
same,Confluency,"Control 1 iPSCs; 3 μM CHIR99021, 5 days",50%
same,Confluency,"Control 1 iPSCs; 3 μM CHIR99021, 8 days",40%
same,Confluency,"Control 1 iPSCs; 3 μM CHIR99021, 10 days",40%
same,Confluency,"Control 1 iPSCs; 4 μM CHIR99021, 4 days",85%
same,Pax7+,"Control 1 iPSCs; 4 μM CHIR99021, 4 days",+ + +
same,Confluency,"Control 1 iPSCs; 4 μM CHIR99021, 5 days",100%
same,Pax7+,"Control 1 iPSCs; 4 μM CHIR99021, 5 days",+ + +
same,Confluency,"Control 1 iPSCs; 4 μM CHIR99021, 8 days",75%
same,Confluency,"Control 1 iPSCs; 4 μM CHIR99021, 10 days",50%
same,Pax7+,"Control 1 iPSCs; 4 μM CHIR99021, 10 days",+ +
same,Confluency,"Control 1 iPSCs; 5 μM CHIR99021, 4 days",60%
same,Pax7+,"Control 1 iPSCs; 5 μM CHIR99021, 4 days",+ +
same,Confluency,"Control 1 iPSCs; 5 μM CHIR99021, 5 days",70%
same,Pax7+,"Control 1 iPSCs; 5 μM CHIR99021, 5 days",+ + +
same,Confluency,"Control 1 iPSCs; 5 μM CHIR99021, 8 days",0%
same,Confluency,"Control 1 iPSCs; 5 μM CHIR99021, 10 days",0%
recombinant human GAA: recombinant human acid α-glucosidase used for enzyme replacement therapy,half life,[2]; in blood,2 to 3 h
same,half life,[2]; in cells,several days
